Test results from BindingDB's records for doi:10.1021/jm00355a015 (1983).

What follows are molecules tested against arachidonate 5-lipoxygenase (Cavia porcellus) (assay: Inhibitory activity against 5-lipoxygenase).

Row | IC50 [µM] | SMILES
1 | 3 | CCCCC/C=C\C\C=C/C=C/C=C/C1CC1CCCC(=O)O (stereo not drawn) [4-(2-Tetradeca-1,3,5,8-tetraenyl-cyclopropyl)-butyric acid]
2 | 20 | CCCCC/C=C\C\C=C/C=C/C=C/C1CC1CCCCC(=O)O (stereo not drawn) [5-(2-Tetradeca-1,3,5,8-tetraenyl-cyclopropyl)-pentanoic acid]
3 | 20 | CCCCC/C=C\C/C=C\CC=CC=CC(=O)CCCC(=O)OC [5-Oxo-icosa-6,8,11,14-tetraenoic acid methyl ester]
4 | 2 | CCCCC/C=C\C/C=C\C/C=C\C=C\[C@@H](O)CCCC(=O)O [(5S,6E,8Z,11Z,14Z)-5-hydroxyicosa-6,8,11,14-tetraenoic acid]
5 | 2 | CCCCC/C=C\C\C=C/C=C/C=C/[C@@H]1O[C@H]1CCCC(=O)O [4-{(2S,3S)-3-[(1E,3E,5Z,8Z)-tetradeca-1,3,5,8-tetraen-1-yl]oxiran-2-yl}butanoic acid]
6 | 100 | CCCCCCCCCCCCCCC1CC1CCCC(=O)O (stereo not drawn) [4-(2-Tetradecyl-cyclopropyl)-butyric acid]
7 | 100 | CCCCC/C=C\C/C=C\C/C=C\C=C\C(CO)CCCC(=O)O (stereo not drawn) [5-Hydroxymethyl-icosa-6,8,11,14-tetraenoic acid]

Row | SMILES | IC50 [µM]
8 | CCCCC/C=C\C\C=C/C=C/C=C/C1SC1CCCC(=O)OC (stereo not drawn) [4-(3-Tetradeca-1,3,5,8-tetraenyl-thiiranyl)-butyric acid methyl ester] | 65
